Results: patent US11008612B2, “Methods and apparatus for single molecule sequencing using energy transfer detection” (Life Technologies Corporation, priority 2009, dated 2021)

Experiments:
[1] = tested on: [enzyme⋅DNA⋅labeled nucleotide] ternary complex (AF647-C6-dG6P); experiment: Stopped-flow measurements of t−1 (nucleotide dissociation from ternary complex); format: binding; settings: ternary complex mixed with 50 μM cognate non-labeled dNTP, 2 mM MnCl2; t−1 = 1/k−1
Description: The rate of the nucleotide dissociation (k−1) from the ternary complex of [enzyme⋅DNA⋅nucleotide] was measured in an Applied Photophysics SX20 stopped-flow spectrometer by monitoring changes […] a duplex Alexa fluor 546 dye-labeled-DNA template following the mixing of the [enzyme⋅DNA⋅labeled nucleotide] ternary complex with 50 μM cognate non-labeled deoxynucleoside triphosphate in a buffer containing 50 mM Tris-HCl (pH 7.5), 50 mM NaCl, 4 mM DTT, 0.2% BSA, and 2 mM MnCl2.
The ternary complexes were prepared using: 330 nM polymerase, 100 nM template/primer duplex, and 7 μM terminal phosphate-labeled nucleotides (AF647-C6-dG6P).
The averaged stopped-flow fluorescence traces (>1.5 msec) were fitted with a single exponential equation (2) to extrapolate the rate of the nucleotide dissociation (k−1) from the [enzyme⋅DNA⋅nucleotide] ternary complex. Fluorescence=A1*e^−k^−1^*t+C (equation 2) where A1 represents the corresponding fluorescence amplitude, C is an offset constant, and k−1 and the observed rate constants for the fluorescence transition. The stopped-flow techniques for measuring t−1 (1/k−1) followed the techniques described by M. Bakhtina (2009 Biochemistry 48:3197-3208).

[2] = tested on: duplex Alexa fluor 546 dye-labeled-DNA template and AF647-C6-dG6P; experiment: Stopped-flow measurements of tpol (nucleotide incorporation kinetics); format: biochemical; settings: 330 nM polymerase, 100 nM template/primer duplex, 7 μM AF647-C6-dG6P, 2 mM MnCl2; tpol = 1/kpol
Description: The kinetics of nucleotide incorporation by B103 (exo-) (SEQ ID NO:5) and an H370R mutant (SEQ ID NO:3) DNA polymerases were measured in an Applied Photophysics SX20 stopped-flow spectrometer by monitoring changes in fluorescence from a duplex Alexa fluor 546 dye-labeled-DNA template following the mixing of the enzyme-DNA complex with dye-labeled nucleotides (AF647-C6-dG6P) in the reaction buffer containing 50 mM Tris-HCl, pH 7.5, 50 mM NaCl, 4 mM DTT, 0.2% BSA, and 2 mM MnCl2. The reactions included 330 nM recombinant DNA polymerase, 100 nM template/primer duplex, and 7 μM labeled nucleotides.
The averaged (5 traces) stopped-flow fluorescence traces (>1.5 ms) were fitted with a double exponential equation (1) to extrapolate the rates of the nucleotide binding and product release, Fluorescence=A1*e^−k^1^*t+A2*e^−k^pol^*t+C (equation 1) where A1 and A2 represent corresponding fluorescence amplitudes, C is an offset constant, and k1 and kpol are the observed rate constants for the fast and slow phases of the fluorescence transition, respectively. The dye-labeled nucleotides comprise terminal-phosphate-labeled nucleotides having an alkyl linker with a functional amine group attached to the dye. The stopped-flow techniques for measuring tpol (1/kpol) followed the techniques described by M P Roettger (2008 Biochemistry 47:9718-9727; M. Bakhtina 2009 Biochemistry 48:3197-320). 2) B103 Polymerase: Stopped-Flow Measurements of t−1

[3] = solubility of core nanoparticles in solvents
Description: The solubility of the aliquoted samples was observed. […] Six of the aliquoted samples were centrifuged and the resulting clear, colorless supernatants were discarded.

template = template extension activity (DNA extension assay); format: biochemical; settings: stock unconjugated polymerase
Description: A 150 nM master mix solution of a labeled hairpin oligonucleotide 221 was prepared by diluting the appropriate quantity of a 50 μM stock solution with extension buffer (50 mM TRIS, pH 8, 50 mM NaCl, 10 mM MgCl2). 450 μl of a master mix was prepared for each sample being tested.
The conjugate being tested was diluted in 450 μl of the master mix such that the final concentration of the conjugate is in the range of 10 nM to 50 nM. The positive control samples of free PKAΦ29 were similarly diluted. The sample solution was deposited in four microtiter plate wells, at 100 μl/well.
The microtiter plate was placed in a plate reader (Molecular Devices, SpectraMax M5) and set up to monitor the fluorescence as function of time (excitation 490 nm, emission 535 nm, cutoff filter 515 nm). Just prior to starting the plate reader, 2 μl of 1 mM dATP was added to each of two microtiter wells to start the extension reaction. The other two microtiter wells with sample represent no extension controls. The plate was read for an hour or until the samples reached saturation. […]

Compound	t−1 [1]	tpol [2]	solubility in solvents [3]	DNA extension assay (template)
K509Y: B103 polymerase with amino acid substitution K509Y	20	10		
CCOC(=O)CCCCCP(=O)(O)O [6-ethoxy-6-oxohexylphosphonic acid]			not soluble in hexane	
B103 (exo-): B103 (exo-) DNA polymerase (SEQ ID NO:5)	16	14		
H370R: H370R mutant B103 DNA polymerase (SEQ ID NO:3)	43	17		
stock HP1-B104-H370R (exo-) polymerase: stock His-tagged HP1-B103 H370R exo- polymerase (SEQ ID NO:3)				0.29 base/sec/enzyme
